Reference: patent US8202687B2, “Method for transporting potassium ions from front side to back side of lipid bilayer membrane” (Panasonic Corporation, priority 2010, dated 2012)

B1: Gαolf: wild type G protein α subunit Gαolf (mouse), SEQ ID NO: 2 (protein, listed as Mus musculus)
chain: MGCLGNSSKTAEDQGVDEKERREANKKIEKQLQKERLAYKATHRLLLLGAGESGKSTIVKQMRILHVNGFNPEEKKQKILDIRKNVKDAIVTIVSAMSTIIPPVPLANPENQFRSDYIKSIAPITDFEYSQEFFDHVKKLWDDEGVKACFERSNEYQLIDCAQYFLERIDSVSLVDYTPTDQDLLRCRVLTSGIFETRFQVDKVNFHMFDVGGQRDERRKWIQCFNDVTAIIYVAACSSYNMVIREDNNTNRLRESLDLFESIWNNRWLRTISIILFLNKQDMLAEKVLAGKSKIEDYFPEYANYTVPEDATPDAGEDPKVTRAKFFIRDLFLRISTATGDGKHYCYPHFTCAVDTENIRRVFNDCRDIIQRMHLKQYELL
modifications: (1)..(381) bulbus olfactorius of mouse

Experiments:
[1] = molecular target: T1, β1 adrenergic receptor (Rattus norvegicus, UniProt P18090); assay: Patch-clamp agonist concentration dependence in Gi/olf94 chimeric G protein expressing cells (present invention); assay type: cell-based; conditions: for Change Level in Current Density (relative value): Table 14, 100 = 30000 nM dopamine, 100 nM dobutamine, 30 nM ISO
T1 construct: expressed in transfected cells; host or cells: HEK293T
T1 sequence (P18090 whole entry): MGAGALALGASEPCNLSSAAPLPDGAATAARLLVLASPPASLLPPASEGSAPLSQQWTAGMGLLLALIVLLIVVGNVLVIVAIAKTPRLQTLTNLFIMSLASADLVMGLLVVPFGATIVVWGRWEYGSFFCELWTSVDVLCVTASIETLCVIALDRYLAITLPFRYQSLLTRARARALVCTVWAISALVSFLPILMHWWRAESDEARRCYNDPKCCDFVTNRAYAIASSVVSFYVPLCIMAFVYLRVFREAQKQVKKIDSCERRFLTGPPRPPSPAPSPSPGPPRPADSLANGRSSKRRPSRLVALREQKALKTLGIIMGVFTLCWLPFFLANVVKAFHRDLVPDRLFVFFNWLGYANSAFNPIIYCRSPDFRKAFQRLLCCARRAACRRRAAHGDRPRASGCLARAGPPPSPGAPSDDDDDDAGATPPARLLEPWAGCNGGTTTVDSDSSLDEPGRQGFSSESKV
Method: Membrane current of the chimeric G protein expressing cell was measured by using a patch-clamp technique. […] Procedure for the measurements is shown below.
Measurement operations were conducted under a microscope (“1X71” manufactured by Olympus, Inc.). A liquid circulation chamber was mounted on the silver/silver chloride (Ag/AgCl) electrode. A sample for measurement was placed in the liquid circulation chamber filled with Tyroad's buffer. At a state where a single cell was in contact with the tip of a glass electrode, negative pressure was applied in the glass electrode. The portion of a cell membrane in contact with the tip of the glass electrode was torn to form an equivalent circuit (Whole-cell mode). The electric potential difference between inside and outside a cell was kept at 0 mV by using a patch clamp amplifier (“EPC10” manufactured by HEKA Instrument Inc.). Under this mode, the Tyroad's buffer in the liquid circulation chamber was substituted with a GIRK buffer.
The GIRK buffer in the liquid circulation chamber was substituted with a sample solution.
Chemical substance detection sensitivity according to the present invention was compared to detection sensitivity of cAMP technique, which is a commonly used chemical substance detection technique. The cAMP technique is a technique for measuring an increase in cAMP concentration in an intracellular fluid caused by an interaction between an agonist and a receptor, and quantifying the concentration of the agonist based on the measured value. More particularly, cells expressing β1 adrenergic receptor and potassium ion channel Kir3.1 (F137S) were placed in contact with a buffer solution containing ISO, and then were homogenized. The concentration of cAMP contained in the obtained homogenate liquid was measured. The concentration measurement was performed by using a measurement kit (cyclic AMP EIA kit; Assay Designs, Inc.). The kit measures cAMP concentration by utilizing competitive EIA (competitive enzyme immunoassay). A cAMP concentration obtained when the ISO concentration inside of a buffer solution was 1000 nM was represented as 100 as a standard, and cAMP concentrations at respective ISO concentrations were calculated as ratios with regard to this standard cAMP concentration. […] A change value in current density obtained when the ISO concentration was 30 nM was represented as 100 as a standard, and change values in current density at respective ISO concentrations were calculated as ratios with regard to the standard change value.

[2] = tested on: β1 adrenergic receptor / potassium ion channel Kir3.1 (F137S) in HEK293T cells; assay: Patch-clamp membrane current of G protein expressing HEK293T cells with and without ISO; assay type: cell-based, rat (receptor), mouse (Kir3.1)
Method: A cell was obtained that expressed a chimeric G protein, a potassium ion channel, and a chemical substance receptor (hereinafter, the cell is referred to as “chimeric G protein expressing cell”). An electrophysiological activity of the chimeric G protein expressing cell was measured by using patch-clamp method. The chimeric G protein expressing cell was prepared in accordance with the following procedure. First, a chimeric G protein expression plasmid, a potassium ion channel expression plasmid, and a chemical substance receptor expression plasmid were prepared. Next, the three expression plasmids were transfected into HEK293T cells, and were then expressed inside the cells.
A chimeric G protein comprising Gi/olf13 as a chimeric Gα subunit was employed. The mutated potassium ion channel Kir3.1 (F137S) was employed as a potassium ion channel. The β1 adrenergic receptor was employed as a chemical substance receptor.
The plasmid (βAR), the plasmid Kir3.1 (F137S), and the plasmid (Gi/olf13) were expressed in HEK293T cells. The procedure for the expression is shown below. Approximately 80% confluent cultured HEK293T cells were collected, and plated on a new culture petri dish. The passage number of the used cells was not more than ten generations. DMEM (supplemented with 10% FBS (fetal bovine serum) and streptomycin) was used. After culturing the cells for 24 hours, the cells were transfected with the plasmids by using a transfection reagent. The cells were cultured for 48 hours after being transfected with the plasmids, and thereby chimeric G protein expressing cells were prepared.
Membrane current of the chimeric G protein expressing cell was measured by using a patch-clamp technique. Measurements were conducted with and without supplying isoproterenol (hereinafter, referred to as “ISO”) which was a β1 adrenergic receptor agonist. Procedure for the measurements is shown below.
The chimeric G protein expressing cells were plated on coverslips (3 mm×10 mm; Matsunami Glass Ind., Ltd.,) treated with PLL (poly-L-lysine) and kept still for four hours to obtain samples for the measurements.
Procedure for preparing glass electrodes used for the measurements is described below. […]
Measurement operations were conducted under a microscope (“1X71” manufactured by Olympus, Inc.). […] Pulse potentials (electric potential: −50 mV; duration time: 100 mS) were applied every 10 seconds, and membrane currents obtained upon the application were measured.
Next, membrane currents obtained when isoproterenol (hereinafter, abbreviated as “ISO”) which is a β1 adrenergic receptor agonist was brought into contact with the cell were measured in accordance with the following procedure. […]

Molecule	Change Level in Current Density (relative value) ([1]; agonist 0.3 nM)	Change Level in Current Density (relative value) ([1]; agonist 3 nM)	Change Level in Current Density (relative value) ([1]; agonist 30 nM)	Change Level in Current Density (relative value) ([1]; agonist 300 nM)	Change Level in Current Density (relative value) ([1]; agonist 3000 nM)	EC50 ([1]; change in current density, Gi/olf94 cells, read-out: half maximal effective concentration (EC50)) [nM]	change level of current caused by addition of ISO ([2]; Reference Example)	current value when ISO was supplied ([2]; Reference Example, FIG. 26-28, with ISO)	Change Level in Current Density ([2]; Table 11, difference of current density without vs with ISO 30 nM, pulse −50 mV, β1 adrenergic receptor + Kir3.1 (F137S) co-expressed) [pA/pF]	Current Change Level ([2]; Table 15, Reference Example, change on contact with ISO) [nA]
CC(CCc1ccc(O)cc1)NCCc1ccc(O)c(O)c1 (stereo not shown) [dobutamine]	0.67	6.80	20.59	99.15	100	50	–	–	–	–
B1	–	–	–	–	–	–	small	approximately 0.5 nA	−22.59	−0.37
